System: hESC-derived hematopoietic cells
Assay: cNK, NKP and ILC3 phenotyping by flow cytometry
Assay type: cell-based, human
Description: FIG. 15A. Gating scheme for identifying cNK (CD94^−CD117^+), NK progenitor cells (NKP, CD94^+CD117^− and CD94^+CD117^−LFA1^+), and ILC (CD94^−CD117^+LFA1^−) phenotypes. FIG. 15B. Representative flow cytometry profile of non-adherent hematopoietic cells differentiated from hESCs in the presence of DMSO, SR-1, or TCDD at Day 11+28. FIG. 15C. cNK, NKP, and NKP/ILC subpopulations from Day 11+28 DMSO, SR-1, and TCDD differentiated hESCs assessed for CD56 and LFA (CD11a/CD18) surface antigen expression. Representative flow cytometry plots are shown, n=3. FIG. 15D. Total percentage of cNK, NKP, and NKP/ILCs present in the non-adherent fraction of differentiating hESCs in the presence of DMSO, SR-1, or TCDD at Day 11+28. n=3, error bars represent SEM, *p<0.05, **p<0.01, ***p<0.001 as compared to DMSO treated controls and assessed by two-way ANOVA+Tukey-Kramer multiple comparisons post-hoc test. FIG. 15E. CD94^−CD117^+ subpopulations were further quantified for expression of LFA^+ (NKP) and LFA^− (ILC) by flow cytometry. n=3, error bars represent SEM, *p<0.05, **p<0.01 as compared to DMSO treated controls and assessed by two-way ANOVA+Tukey-Kramer multiple comparisons post-hoc test.
Spin-EBs were generated as described above (see also Knorr et al. Stem Cells Dev. 2013; 22(13):1861-9; Ni et al. Embryonic Stem Cell Immunobiol. Methods Protoc. Methods Mol. Biol. 2013; 1029:33-41; Hermanson et al. Stem Cells. 2016; 34(1):93-101). Following 11 days of mesoderm conditioning (Day 11), spin-EBs were collected and analyzed by flow cytometry to assess hematopoietic progenitor cell potential (see flow cytometry methods for antibodies used) (FIG. 4A). Spin-EBs yielding >30% CD34^+CD45^+ cells were transferred onto 24-well plates coated with irradiated OP9-DL1 cells (as described in Martin et al. Blood. 2008; 112(7):2730-7; La Motte-Mohs et al. Blood. 2005; 105(4):1431-9) (now defined as Day 11+0). EBs and OP9-DL1 were co-cultured in NK differentiation media (NKDM) supplemented initially with SCF, IL-15, IL-7, Flt3-L (all R&D Systems), and IL-3 (PeproTech) for one week; DMSO, SR-1, or TCDD were also added at Day 11+0. Every week, a one-half media change with NKDM supplemented with SCF, IL-15, IL-7, Flt3-L, and drugs was performed. hESCs were differentiated for four additional weeks (Day 11+28) and non-adherent cells were harvested for analysis.
The following additional antibodies were used (all anti-human): LFA-1 (CD11a/CD18)-APC-R700 (BD Biosciences), CD31-APC (eBioscience), CD33-APC (BD Biosciences), CD34-PECy7 (BD Biosciences), CD34-APC (BD Biosciences), CD41a-APC (BD Biosciences), CD43-APC (BD Biosciences), CD45-APC (BD Biosciences), CD56-PECy7 (BD Biosciences), CD56-BV421 (BD Biosciences), CD94-PerCP-Cy5.5 (BD Biosciences), CD117-PECy7 (BD Biosciences), CD117-APC (eBiosciences), CD144-APC (eBioscience). Samples were analyzed on either an LSRFortessa or LSRII flow cytometer (BD Biosciences). Gating was set relative to isotype controls of identical fluorophores. Data from flow cytometry was analyzed using FlowJo software (Treestar, Ashland, Oreg.).
To assess the effects of AHR modification on NK cell and ILC specification, non-adherent hematopoietic cells derived from hESCs on Day 11+28 cultured in NKDM supplemented with DMSO, SR-1, or TCDD were harvested as single-cell suspensions. Cells were washed with DPBS, filtered, and stained with the following antibodies (all anti-human): CD56-BV421, CD94-PerCP-Cy5.5, CD117-PECy7, and LFA-1 (CD11a/CD18)-APC-R700 in sterile FACS Buffer (DPBS+2% FBS and 0.1% sodium azide) for 30 minutes at 4° C. Cells were washed with FACS buffer and cells were counterstained with Sytox Blue (ThermoFisher Scientific) immediately prior to sorting. Live NKP, cNK, and ILC3 populations were sorted directly into FACS tubes containing NKDM basal media using a FACSAria II (BD Biosciences) cell sorter. Cells were immediately centrifuged, washed once with PBS, and processed from total RNA isolation as described above.

[1] = Day 11+28, non-adherent fraction, n=3

Structure (SMILES) | change in CD94−CD117+ population compared to DMSO (Day 11+28) | NKP (CD94+CD117+) cells, total percentage [1] [%] | cNK cells (CD94+CD117−), total percentage [1] [%] | shift of NKP population compared to DMSO (Day 11+28) | percentage of CD94−CD117+ cells absent for LFA1 (ILC3) (Day 11+28, n=3) [%] | CD94−CD117+ cells, total percentage [1] [%]
CC(C)n1cnc2c(NCCc3ccc(O)cc3)nc(-c3csc4ccccc34)nc21 [SR-1, StemReginin-1] | significant reduction | 16.13±0.58 | 37.0±2.92 |  |  | 
Clc1cc2c(cc1Cl)Oc1cc(Cl)c(Cl)cc1O2 [TCDD, 2,3,7,8-tetrachlorodibenzo-p-dioxin] |  |  |  | significantly shifted hESC-derived hematopoietic cells away from NKPs | 69.4±4.57 | 28.5±4.42
